Source: US12435092B2, “Substituted imidazo[1,2-A]quinazolines as inhibitors of PARG” (858 Therapeutics, Inc., priority 2022, dated 2025)

Biological target: T1, cellular PARG (Homo sapiens, UniProt Q86W56)
T1 construct: endogenous in cells; host or cells: HeLa
Assay: Nuclear PAR accumulation assay (immunofluorescence high-content imaging)
Assay type: cell-based
Conditions: HeLa cells, 1 hour compound treatment then MMS 50 μg/mL for an additional hour
Procedure: Compound IC50 values for inhibition of cellular PARG were determined using an immunofluorescence high-content imaging assay for nuclear PAR accumulation. HeLa cells were plated at 15,000 cells/well in a 96-well plate the day before compound treatment and then treated with varying concentrations of test compound and incubated for 1 hour at 37° C.+5% CO2. Following test compound treatment, methylmethane sulfonate (MMS) was added to a final concentration of 50 μg/mL and the cells were incubated for an additional hour. Following treatment, the cells were fixed with ice cold 95% methanol and the plates sealed and placed at −20° C. for 15 minutes. The cells were then washed once with phosphate buffered saline (PBS) and permeabilized with 0.1% Triton-X 100 for 20 minutes at room temperature. The cells were again washed once with PBS and incubated with an anti-poly-ADP ribose (PAR) monoclonal antibody (Millipore Part #AM80 clone 10H) diluted 1:1,000 in 5% fetal bovine serum +0.1% Tween-20+PBS overnight at 4° C. The cells were then washed three times with PBS before incubation with a fluorescently conjugated goat anti-mouse antibody (Invitrogen A32723) diluted 1:500 in 5% FBS+0.1% Tween-20+PBS for 1 hour at room temperature. The cells were again washed three times with PBS and the nuclei labeled by incubating with 1 μg/mL DAPI (4′,6-diamidino-2-phenylindole). Nuclear PAR accumulation was evaluated using high-content fluorescence microscopy. Four fields for each well were acquired at 20× magnification resulting in at least 1,000 cells analyzed per well. Using high-content software (CellReporterXpress) the nuclei were detected and segmented using the DAPI channel and the fluorescence intensity of the PAR-Alexa 488 channel was quantified within the nuclei regions. Both the average intensity per nucleus and percent PAR positive cells were quantified. Percent PAR positive cells were identified by having greater anti-PAR labeling above the threshold set with vehicle DMSO treated control cells. Percent inhibition of PARG by test compounds was calculated by normalizing the data to the 0.1% DMSO and reference compound control values, which represent 0% and 100% inhibition of enzymatic activity, respectively. Concentration-response-curves and IC50 values were generated using four parameter logistic curve fit software.

T1 sequence (Q86W56 whole entry): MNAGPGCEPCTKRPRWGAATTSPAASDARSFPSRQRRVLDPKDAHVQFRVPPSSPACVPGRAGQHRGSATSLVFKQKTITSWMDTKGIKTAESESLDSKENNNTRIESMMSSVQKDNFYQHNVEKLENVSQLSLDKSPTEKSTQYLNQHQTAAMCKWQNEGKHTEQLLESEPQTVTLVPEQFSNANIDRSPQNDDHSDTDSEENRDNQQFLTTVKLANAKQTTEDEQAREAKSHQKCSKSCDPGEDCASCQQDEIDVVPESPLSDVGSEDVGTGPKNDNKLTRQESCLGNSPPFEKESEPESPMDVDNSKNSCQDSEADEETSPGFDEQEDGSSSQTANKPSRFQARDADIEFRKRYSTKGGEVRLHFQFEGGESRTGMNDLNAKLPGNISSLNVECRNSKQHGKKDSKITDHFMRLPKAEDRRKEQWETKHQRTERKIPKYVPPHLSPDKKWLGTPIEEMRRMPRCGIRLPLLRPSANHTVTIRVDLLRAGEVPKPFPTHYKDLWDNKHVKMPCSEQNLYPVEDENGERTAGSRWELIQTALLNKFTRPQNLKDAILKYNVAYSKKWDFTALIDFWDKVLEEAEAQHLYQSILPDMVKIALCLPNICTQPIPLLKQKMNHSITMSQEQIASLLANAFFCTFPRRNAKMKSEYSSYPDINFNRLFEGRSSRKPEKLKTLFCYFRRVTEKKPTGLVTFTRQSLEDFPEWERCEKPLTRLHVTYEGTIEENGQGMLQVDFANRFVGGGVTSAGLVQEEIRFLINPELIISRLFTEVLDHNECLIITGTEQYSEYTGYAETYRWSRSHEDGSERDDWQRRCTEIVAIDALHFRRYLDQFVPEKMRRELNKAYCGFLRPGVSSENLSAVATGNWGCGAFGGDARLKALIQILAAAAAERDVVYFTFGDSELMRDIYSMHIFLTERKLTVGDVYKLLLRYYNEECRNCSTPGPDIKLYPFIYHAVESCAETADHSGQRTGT

| IC50 [nM] | Compound |
| --- | --- |
| 100 to 1000 | C[C@@H]1CN=C2N(Cc3cnn(CCN(C)C)c3)C(=O)c3cc(S(=O)(=O)NC4(C)CC4)ccc3N21 [Example 53, (R)-4-((1-(2-(dimethylamino)ethyl)-1H-pyrazol-4-yl)methyl)-1-methyl-N-(1-methylcyclopropyl)-5-oxo-1,2,4,5-tetrahydroimidazo[1,2-a]quinazoline-7-sulfonamide] |
| > 10000 | C[C@@H]1CN=C2N(CC3COC3)C(=O)c3cc(S(=O)(=O)NC4(C)CC4)ccc3N21 [Example 54, (R)-1-methyl-N-(1-methylcyclopropyl)-4-(oxetan-3-ylmethyl)-5-oxo-1,2,4,5-tetrahydroimidazo[1,2-a]quinazoline-7-sulfonamide] |
| ≤ 100 | C[C@@H]1CN=C2N(Cc3cn(C)nc3C(F)(F)F)C(=O)c3cc(S(=O)(=O)NC4(C)CC4)ccc3N21 [Example 55, (R)-1-methyl-4-((1-methyl-3-(trifluoromethyl)-1H-pyrazol-4-yl)methyl)-N-(1-methylcyclopropyl)-5-oxo-1,2,4,5-tetrahydroimidazo[1,2-a]quinazoline-7-sulfonamide] |
| ≤ 100 | Cc1nnc(CN2C(=O)c3cc(S(=O)(=O)NC4(C)CC4)ccc3N3C2=NC[C@H]3C)s1 [Example 56, (R)-1-methyl-4-((5-methyl-1,3,4-thiadiazol-2-yl)methyl)-N-(1-methylcyclopropyl)-5-oxo-1,2,4,5-tetrahydroimidazo[1,2-a]quinazoline-7-sulfonamide] |
| ≤ 100 | C[C@@H]1CN=C2N(Cc3cnn(C(F)F)c3)C(=O)c3cc(S(=O)(=O)NC4(C)CC4)ccc3N21 [Example 57, (R)-4-((1-(difluoromethyl)-1H-pyrazol-4-yl)methyl)-1-methyl-N-(1-methylcydopropyl)-5-oxo-1,2,4,5-tetrahydroimidazo[1,2-a]quinazoline-7-sulfonamide] |
| ≤ 100 | C#CCN1C(=O)c2cc(S(=O)(=O)NC3(C)CC3)ccc2N2C1=NC[C@H]2C [Example 58, (R)-1-methyl-N-(1-methylcyclopropyl)-5-oxo-4-(prop-2-yn-1-yl)-1,2,4,5-tetrahydroimidazo[1,2-a]quinazoline-7-sulfonamide] |
| ≤ 100 | CC#C[C@@H]1CN=C2N(Cc3cnn(C)c3)C(=O)c3cc(S(=O)(=O)NC4(C)CC4)ccc3N21 [Example 59, (R)-4-((1-methyl-1H-pyrazol-4-yl)methyl)-N-(1-methylcyclopropyl)-5-oxo-1-(prop-1-yn-1-yl)-1,2,4,5-tetrahydroimidazo[1,2-a]quinazoline-7-sulfonamide] |
| 100 to 1000 | CC#C[C@H]1CN=C2N(Cc3cnn(C)c3)C(=O)c3cc(S(=O)(=O)NC4(C)CC4)ccc3N21 [Example 60, (S)-4-((1-methyl-1H-pyrazol-4-yl)methyl)-N-(1-methylcyclopropyl)-5-oxo-1-(prop-1-yn-1-yl)-1,2,4,5-tetrahydroimidazo[1,2-a]quinazoline-7-sulfonamide] |
| ≤ 100 | [2H]C([2H])(c1cnn(C)c1)N1C(=O)c2cc(S(=O)(=O)NC3(C)CC3)ccc2N2C1=NC[C@H]2C [Example 61, (R)-1-methyl-4-((1-methyl-1H-pyrazol-4-yl)methyl-d2)-N-(1-methylcyclopropyl)-5-oxo-1,2,4,5-tetrahydroimidazo[1,2-a]quinazoline-7-sulfonamide] |
| ≤ 100 | [2H]C([2H])(c1c(C)noc1C)N1C(=O)c2cc(S(=O)(=O)NC3(C)CC3)ccc2N2C1=NC[C@H]2C [Example 62, (R)-4-((3,5-dimethylisoxazol-4-yl)methyl-d2)-1-methyl-N-(1-methylcyclopropyl)-5-oxo-1,2,4,5-tetrahydroimidazo[1,2-a]quinazoline-7-sulfonamide] |
| ≤ 100 | [2H]C([2H])(c1cnc(C)s1)N1C(=O)c2cc(S(=O)(=O)NC3(C)CC3)ccc2N2C1=NC[C@H]2C [Example 63, (R)-1-methyl-N-(1-methylcyclopropyl)-4-((2-methylthiazol-5-yl)methyl-d2)-5-oxo-1,2,4,5-tetrahydroimidazo[1,2-a]quinazoline-7-sulfonamide] |
| ≤ 100 | Cn1cc(CN2C(=O)c3cc(S(=O)(=O)NC4(C)CC4)ccc3N3CC(C)(C)N=C23)cn1 [Example 64, 2,2-dimethyl-4-((1-methyl-1H-pyrazol-4-yl)methyl)-N-(1-methylcyclopropyl)-5-oxo-1,2,4,5-tetrahydroimidazo[1,2-a]quinazoline-7-sulfonamide] |
| ≤ 100 | Cn1cc(CN2C(=O)c3cc(S(=O)(=O)NC4(C)CC4)ccc3N3C2=NC[C@H]3C(F)(F)F)cn1 [Example 65, (S)-1-trifluoromethyl-4-((1-methyl-1H-pyrazol-4-yl)methyl)-N-(1-methylcyclopropyl)-5-oxo-1,2,4,5-tetrahydroimidazo[1,2-a]quinazoline-7-sulfonamide] |
| ≤ 100 | C[C@@H]1CN=C2N(Cc3cnn(CC#N)c3)C(=O)c3cc(S(=O)(=O)NC4(C)CC4)ccc3N21 [Example 66, (R)-1-methyl-4-((1-cyanomethyl-1H-pyrazol-4-yl)methyl)-N-(1-methylcyclopropyl)-5-oxo-1,2,4,5-tetrahydroimidazo[1,2-a]quinazoline-7-sulfonamide] |
| ≤ 100 | Cc1noc(C)c1CN1C(=O)c2cc(S(=O)(=O)NC3(C)CC3)ccc2N2C1=NC[C@H]2C(C)C [Example 67, (R)-4-((3,5-dimethylisoxazol-4-yl)methyl)-1-isopropyl-N-(1-methylcyclopropyl)-5-oxo-1,2,4,5-tetrahydroimidazo[1,2-a]quinazoline-7-sulfonamide] |
| 1000 to 10000 | Cc1noc(C)c1CN1C(=O)c2cc(S(=O)(=O)NC3(C)CC3)ccc2N2C1=NC[C@@H]2C(C)C [Example 68, (S)-4-((3,5-dimethylisoxazol-4-yl)methyl)-1-isopropyl-N-(1-methylcyclopropyl)-5-oxo-1,2,4,5-tetrahydroimidazo[1,2-a]quinazoline-7-sulfonamide] |
| ≤ 100 | Cc1noc(C)c1CN1C(=O)c2cc(S(=O)(=O)NC3(C)CC3)ccc2N2C1=NC[C@H]2C1CC1 [Example 69, (R)-1-cyclopropyl-4-((3,5-dimethylisoxazol-4-yl)methyl)-N-(1-methylcyclopropyl)-5-oxo-1,2,4,5-tetrahydroimidazo[1,2-a]quinazoline-7-sulfonamide] |
| 100 to 1000 | Cc1noc(C)c1CN1C(=O)c2cc(S(=O)(=O)NC3(C)CC3)ccc2N2C1=NC[C@@H]2C1CC1 [Example 70, (S)-1-cyclopropyl-4-((3,5-dimethylisoxazol-4-yl)methyl)-N-(1-methylcyclopropyl)-5-oxo-1,2,4,5-tetrahydroimidazo[1,2-a]quinazoline-7-sulfonamide] |
| ≤ 100 | C#C[C@@H]1CN=C2N(Cc3c(C)noc3C)C(=O)c3cc(S(=O)(=O)NC4(C)CC4)ccc3N21 [Example 71, (R)-4-((3,5-dimethylisoxazol-4-yl)methyl)-1-ethynyl-N-(1-methylcyclopropyl)-5-oxo-1,2,4,5-tetrahydroimidazo[1,2-a]quinazoline-7-sulfonamide] |
| ≤ 100 | C#C[C@H]1CN=C2N(Cc3c(C)noc3C)C(=O)c3cc(S(=O)(=O)NC4(C)CC4)ccc3N21 [Example 72, (S)-4-((3,5-dimethylisoxazol-4-yl)methyl)-1-ethynyl-N-(1-methylcyclopropyl)-5-oxo-1,2,4,5-tetrahydroimidazo[1,2-a]quinazoline-7-sulfonamide] |
| ≤ 100 | Cc1nc(C)c(CN2C(=O)c3cc(S(=O)(=O)NC4(C)CC4)ccc3N3C2=NC[C@H]3C)s1 [Example 73, (R)-4-((2,4-dimethylthiazol-5-yl)methyl)-1-methyl-N-(1-methylcyclopropyl)-5-oxo-1,2,4,5-tetrahydroimidazo[1,2-a]quinazoline-7-sulfonamide] |
| ≤ 100 | C[C@@H]1CN=C2N(Cc3cnn(C)c3)C(=O)c3cc(S(=O)(=O)NC4(C)CC4)c(F)cc3N21 [Example 74, (R)-8-fluoro-1-methyl-4-((1-methyl-1H-pyrazol-4-yl)methyl)-N-(1-methylcyclopropyl)-5-oxo-1,2,4,5-tetrahydroimidazo[1,2-a]quinazoline-7-sulfonamide] |
| ≤ 100 | C[C@H]1CCN=C2N(Cc3cnn(C)c3)C(=O)c3cc(S(=O)(=O)NC4(C)CC4)ccc3N21 [Example 75, (S)-1-methyl-5-((1-methyl-1H-pyrazol-4-yl)methyl)-N-(1-methylcyclopropyl)-6-oxo-2,3,5,6-tetrahydro-1H-pyrimido[1,2-a]quinazoline-8-sulfonamide] |
| ≤ 100 | C[C@@H]1CCN=C2N(Cc3cnn(C)c3)C(=O)c3cc(S(=O)(=O)NC4(C)CC4)ccc3N21 [Example 76, (R)-1-methyl-5-((1-methyl-1H-pyrazol-4-yl)methyl)-N-(1-methylcyclopropyl)-6-oxo-2,3,5,6-tetrahydro-1H-pyrimido[1,2-a]quinazoline-8-sulfonamide] |
